Results: US10016383B2, “Inhibitors of metallo-β-lactamase-enzymes” (McMaster University, priority 2013, dated 2018)

Columns and labels:
[1] = system: panel of 16 clinical CRE isolates; test: FIC index determination; type: cell-based, Enterobacteriaceae; conditions: meropenem and AM-A combinations; ≤0.5 defined as synergistic
Protocol: (§1) FIC values were determined by standard methods^27 setting up checkerboards with 8 concentrations of each meropenem and AM-A in serial ½ dilutions. Experiments were done in duplicate and the mean used for calculation. The MIC for each compound was the lowest concentration of compound showing no growth. The FIC for each compound was calculated as the concentration of the compound in the presence of co-compound for a well showing no growth, divided by the MIC for that compound. The FIC index is the sum of the two FICs.

[2] = system: Pseudomonas spp.; test: Clinical isolate screening with meropenem; type: cell-based, Pseudomonas aeruginosa
Protocol: Various concentrations of AM-A were chosen in combination with 2 mg/L of meropenem which is the EUCAST breakpoint for resistance^28. Synergistic properties of the two compounds were examined in a micro-titre tray using BHI as the growth medium (Oxford Science Park, England) and an inoculum of 0.5 MacFarland. All plates contained the control strains Escherichia coli ATCC 25922 and Pseudomonas aeruginosa ATCC 27853. Overall, 226 non-clonal clinical isolates (Enterobacteriaceae, P. aeruginosa and Acinetobacter spp.) were challenged containing one of the following MBLs: SPM-1 (n=17), AIM-1 (n=8), NDM-1 (n=67), VIM-type (n=114) or IMP-type (n=20). […] Plates were incubated at 37° C. and read after 18 hrs.

[3] = system: K. pneumoniae N11-2218; test: Microdilution checkerboard / MIC; type: cell-based, Klebsiella pneumoniae; conditions: checkerboard MIC, NDM-1 expressing CRE
Protocol: as §1

[4] = system: K. pneumoniae N11-2218; test: Mouse lethal systemic infection, survival; type: in vivo, CD1 mice
Source text: All animals were housed in specific pathogen-free units in the Central Animal Facility at McMaster University. All experimental protocols were approved by, and performed in accordance with the McMaster Animal Research Ethics Board. Female CD1 mice were purchased from Charles River.
Mice were infected intraperitoneally (ip) with a dose of 2×10^6 colony forming units (cfu) of Klebsiella pneumoniae N11-2218 for all organ bacterial load experiments, or with a dose of 5×10^7cfu for all survival experiments. For all organ bacterial load experiments, mice were euthanized 48 hours post infection, and spleen and liver were harvested. Organs were placed into 1 mL sterile PBS on ice, and then homogenized (Mixer Mill 400; Retsch). Organ homogenates were then serially diluted in PBS, and plated on Brilliant Green agar (Oxoid) for cfu enumeration. For survival curves, mice were monitored for endpoint. For all experiments, mice were treated 30 minutes post infection with a specified subcutaneous dose of either PBS, meropenem, AM-A inhibitor, or a combination of both antibiotic and inhibitor.

[5] = system: E. coli BW25113ΔbamBΔtolCΔaraDAB::pLac(blaNDM-1); test: Cell-based screen for NDM-1 inhibitors with sub-lethal meropenem; design: species or system Escherichia coli; conditions: in combination with meropenem
Protocol: A cell-based screen for inhibitors of the NDM-1 metallo-β-lactamase using a collection of natural product extracts derived from environmental microorganisms was performed. To increase the sensitivity of the screen to MBL inhibitor discovery a test strain of Escherichia coli BW25113 in which the bamB and tolC genes were independently deleted (E. coli BW25113ΔbamBΔtolC) was generated. BamB is involved in outer membrane porin assembly and disruption results in increased permeability to small molecules^19 and TolC is a part of the tripartite small molecule efflux systems such as AcrA-AcrB-TolC that serve to actively eliminate small molecules from the cell^20. Therefore, E. coli BW25113ΔbamBΔtolC increases the sensitivity of the screen to discovery of “hits”. This strain was further modified by integrating the blaNDM-1β-lactamase gene under control of the pLac promoter into the chromosome [E. coli BW25113ΔbamBΔtolCΔaraDAB::pLac(blaNDM-1)]. This strain was screened in the presence of a sub-lethal concentration of meropenem (of the minimum inhibitory concentration 0.125 μg/mL) in combination with ˜500 natural product extracts.
˜500 natural product extracts were screened against E. coli BW25113ΔbamBΔto1CΔaraDAB::pLac(blaNDM-1) in combination with 0.125 μg/mL meropenem. […] Z′ was determined to be 0.77, indicating an excellent screening window^22.

[6] = system: IMP-7; test: Incubation of AM-A with metalloenzymes in Zn2+-depleted buffer; type: biochemical; conditions: extended incubation, AM-A 0.5 mM
Protocol: 20 μL of the above was diluted with 180 μL nitrocefin or FAPGG substrate for the following final concentrations: Enzyme (50 nM), FAPGG (50 μM)/nitrocefin (20 μM), AM-A (50 μM). Buffer (50 mM HEPES pH 7.5, 300 mM NaCl) was stirred overnight with 2 g/100 mL Chelex-100 (Biorad; Richmond, Calif.). Assays were read in 96-well microplate format at 490 nm using a Spectramax reader (Molecular Devices) at 37° C.

[7] = molecular target: NDM-1 (Klebsiella pneumoniae, UniProt C7C422); test: ICP mass spectrometry of Zn in enzyme; conditions: NDM-1 inactivated by AM-A, ICP-MS
NDM-1, sequence (C7C422 27-270 limits assumed): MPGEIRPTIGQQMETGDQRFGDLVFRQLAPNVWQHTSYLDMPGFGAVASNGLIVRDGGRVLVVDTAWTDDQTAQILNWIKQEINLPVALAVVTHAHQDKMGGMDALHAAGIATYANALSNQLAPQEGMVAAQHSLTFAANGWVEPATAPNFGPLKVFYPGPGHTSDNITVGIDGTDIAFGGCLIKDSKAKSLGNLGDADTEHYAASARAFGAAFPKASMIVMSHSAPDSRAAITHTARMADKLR
Protocol: Inductively coupled mass spectrometry (ICP-MS) was used to analyze the ability of AM-A to chelate Zn^66 from purified NDM-1 (27-270). The NDM-1 protein was purified as previously described^26 and freshly exchanged using a 15 kDa cutoff dialysis tubing into ICP-MS buffer (20 mM HEPES, 100 mM NaCl, pH 7.5) overnight at 4° C. in order to remove any contaminating metals. The protein was concentrated to ˜5 mg/mL and varying concentrations of AM-A were incubated with the protein samples in triplicate for 3 hours at room temperature with gentle shaking. The protein-AM-A samples were again dialyzed overnight at 4° C. into ICP-MS buffer using 12-14 kDa cutoff D-tube dialyzer mini (EMD biosciences) microdialysis cassettes. The final protein was diluted to 1 mg/mL in ICP-MS buffer, followed by a 1/40 dilution in an internal standard (10 ug/L Sc45, 1% nitric acid, Inorganic Ventures). Prior to sample analysis, the ICP MS was calibrated using a standard solution containing the metal isotopes of interest (Inorganic Ventures). […] Quantitative analysis was performed in triplicate for each sample with 60 sweeps per reading using the peak-hopping mode with a 50 ms/AMU dwell time for each element. […] Isotope abundance was determined by integrating peak areas using the NexION software program, and the data was represented graphically using Microsoft Excel.

[8] = rats, i.v.; cited from earlier work

**Q.** Which results are given for `N[C@H](CN[C@H](CN[C@@H](CC(=O)O)C(=O)O)C(=O)O)C(=O)O` [AM-A, aspergillomarasmine A]?
**A.** Fractional inhibitory concentration (FIC) index [1]: < 0.1; activity in Pseudomonas spp. (potentiation of meropenem) [2]: active; synergy between meropenem and AM-A [3]: synergy; prevention of lethal infection ([4]; monotherapy (alone)): unable to prevent lethal infection; survival ([4]; single dose of combination meropenem 10 mg/kg + AM-A 30 mg/kg, 5 days following infection): > 95%; restoration of meropenem antibiotic activity [5]: restored meropenem activity; inhibition of activity in IMP-7 [6]: ~70%; loss of Zn from NDM-1 [7]: ~1.8 Zn equivalents; LD50 [8]: 250 mg/kg
